For 22 compounds, T/C results are on record in PubChem BioAssay AID330 (DTP/NCI, 2004).

For the assay, the system named is P388 leukemia ip, CD2F1 mice, survival T/C. Briefly: NCI In Vivo Anticancer Drug Screen. Data for tumor model P388 Leukemia (intraperitoneal) in CD2F1 (CDF1) mice. As to conditions: endpoint: median survival time, higher = longer survival. The essentials:
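Mice carrying the transplanted tumor received test compound or vehicle. Survival was recorded in each group, and the value is the treated-group measurement divided by that of the vehicle-treated control group.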

[1] abbreviates: dose: 100.0 mg/kg/injection, schedule: Q04DX003 (ip), vehicle: saline with Tween-80.
The mark [2] stands for this setting: dose: 200.0 mg/kg/injection, schedule: Q04DX003 (ip), vehicle: saline with Tween-80.
Setting [3] is: dose: 400.0 mg/kg/injection, schedule: Q04DX003 (ip), vehicle: saline with Tween-80.
[4] abbreviates: dose: 50.0 mg/kg/injection, schedule: Q01DX005 (ip), vehicle: saline.
[5] abbreviates: dose: 100.0 mg/kg/injection, schedule: Q01DX005 (ip), vehicle: saline.
[6] abbreviates: dose: 200.0 mg/kg/injection, schedule: Q01DX005 (ip), vehicle: saline.
Setting [7] is: dose: 50.0 mg/kg/injection, schedule: Q01DX009 (ip), vehicle: Klucel (hydroxypropylcellulose) (HPC).
Setting [8] is: dose: 100.0 mg/kg/injection, schedule: Q01DX009 (ip), vehicle: Klucel (hydroxypropylcellulose) (HPC).
[9] abbreviates: dose: 200.0 mg/kg/injection, schedule: Q01DX009 (ip), vehicle: Klucel (hydroxypropylcellulose) (HPC).
Where [10] appears, read: dose: 60.0 mg/kg/injection, schedule: Q01DX005 (ip), vehicle: saline with Tween-80.
Setting [11] is: dose: 120.0 mg/kg/injection, schedule: Q01DX005 (ip), vehicle: saline with Tween-80.
The mark [12] stands for this setting: dose: 240.0 mg/kg/injection, schedule: Q01DX005 (ip), vehicle: saline with Tween-80.
Where [13] appears, read: dose: 100.0 mg/kg/injection, schedule: Q01DX009 (ip), vehicle: saline with Tween-80.
Where [14] appears, read: dose: 200.0 mg/kg/injection, schedule: Q01DX009 (ip), vehicle: saline with Tween-80.
[15] abbreviates: dose: 25.0 mg/kg/injection, schedule: Q01DX005 (ip), vehicle: Klucel (hydroxypropylcellulose) (HPC).
Where [16] appears, read: dose: 50.0 mg/kg/injection, schedule: Q01DX005 (ip), vehicle: Klucel (hydroxypropylcellulose) (HPC).
Where [17] appears, read: dose: 100.0 mg/kg/injection, schedule: Q01DX005 (ip), vehicle: Klucel (hydroxypropylcellulose) (HPC).
Setting [18] is: dose: 200.0 mg/kg/injection, schedule: Q01DX005 (ip), vehicle: Klucel (hydroxypropylcellulose) (HPC).

Several values for one entry are separate records, joined by “and”; a condition that tells them apart may be missing. Identical values can stand only once. Toxic doses and inconclusive results are not listed. Peptide text beside a SMILES is read from it.

On to `CC1=NN(C(=O)c2cccnc2)C(=O)C1N=Nc1ccc(S(=O)(=O)N=C(N)N)cc1` (stereo not drawn), for which the T/C reads like this: under setting [1], 91 % of control; under setting [2], 92 % of control; under setting [3], 88 % of control.
For the compound `NC(=S)N/N=C/c1ccc(O)cn1`, the T/C is, setting by setting: (dose: 18.8 mg/kg/injection, schedule: Q01DX009 (ip), vehicle: other) 152 % of control and 185 % of control; (dose: 18.8 mg/kg/injection, schedule: Q01DX009 (ip), vehicle: saline with Tween-80) 156 % of control; (dose: 25.0 mg/kg/injection, schedule: Q01DX001 (ip), vehicle: Klucel (hydroxypropylcellulose) (HPC)) 118 % of control and 119 % of control; (dose: 25.0 mg/kg/injection, schedule: Q04DX002 (ip), vehicle: Klucel (hydroxypropylcellulose) (HPC)) 113 % of control and 116 % of control; (dose: 25.0 mg/kg/injection, schedule: Q04DX003 (ip), vehicle: Klucel (hydroxypropylcellulose) (HPC)) 115 % of control; (dose: 37.5 mg/kg/injection, schedule: Q01DX009 (ip), vehicle: other) 175 % of control and 221 % of control. Moreover, the T/C (dose: 37.5 mg/kg/injection, schedule: Q01DX009 (ip), vehicle: saline) was 172 % of control; the T/C (dose: 75.0 mg/kg/injection, schedule: Q01DX009 (ip), vehicle: saline with Tween-80) is 173 % of control; the T/C (dose: 75.0 mg/kg/injection, schedule: Q01DX009 (ip), vehicle: saline) was 160 % of control.
In the case of `OCc1cnccc1Br`, the T/C reads like this: (dose: 60.0 mg/kg/injection, schedule: Q01DX005 (ip), vehicle: saline) 99 % of control; (dose: 120.0 mg/kg/injection, schedule: Q01DX005 (ip), vehicle: saline) 100 % of control; (dose: 240.0 mg/kg/injection, schedule: Q01DX005 (ip), vehicle: saline) 99 % of control.
On to `CC(=O)NC1C(Nc2ccc(S(=O)(=O)NC(C)=O)cc2)OC(CO)C(O)C1O` (stereo not drawn), for which the T/C reads like this: under setting [4], 100 % of control; under setting [5], 97 % of control; under setting [6], 97 % of control.
On to `O=C(CCCCC(=O)NO)NO`, for which the T/C is 102 % of control under setting [7], 105 % of control under setting [8] and 105 % of control under setting [9].
With `CCN(CC)CC.[CH-]1CCCCC1.[CH-]1CCCCC1.[CH-]1CCCCC1.[Cl-].[I-].[Sn+4]`, the T/C (dose: 1.5 mg/kg/injection, schedule: Q01DX005 (ip), vehicle: Klucel (hydroxypropylcellulose) (HPC)) is 96 % of control; the T/C (dose: 3.0 mg/kg/injection, schedule: Q01DX005 (ip), vehicle: Klucel (hydroxypropylcellulose) (HPC)) is 98 % of control; the T/C (dose: 6.0 mg/kg/injection, schedule: Q01DX005 (ip), vehicle: Klucel (hydroxypropylcellulose) (HPC)) was 100 % of control and 93 % of control.
For `CC(=O)N1OCCc2ccccc21`, the T/C by setting is: under setting [10], 100 % of control; under setting [11], 98 % of control; under setting [12], 98 % of control.
Turning to `O=C(CCl)NC(Cc1ccccc1F)C(=O)O` (stereo not drawn), the T/C is 106 % of control (dose: 50.0 mg/kg/injection, schedule: Q01DX009 (ip), vehicle: saline); 102 % of control (dose: 100.0 mg/kg/injection, schedule: Q01DX009 (ip), vehicle: saline); 101 % of control (dose: 200.0 mg/kg/injection, schedule: Q01DX009 (ip), vehicle: saline).
Regarding `CNP(=O)(OC)Oc1ccc(C(C)(C)C)cc1Cl` (stereo not drawn), the T/C by setting is: (dose: 50.0 mg/kg/injection, schedule: Q01DX009 (ip), vehicle: saline with Tween-80) 112 % of control; under setting [13], 106 % of control; under setting [14], 115 % of control.
In the case of `Cc1ccc(C(=O)C2CC(Br)C(Br)CC2C(=O)c2ccc(C)cc2)cc1` (stereo not drawn), the T/C runs as follows: under setting [13], 91 % of control; under setting [14], 91 % of control; (dose: 400.0 mg/kg/injection, schedule: Q01DX009 (ip), vehicle: saline with Tween-80) 87 % of control.
As to `CC(=O)OC1=C(C)C2=C3OC(=O)C(C)=C3CC[C@@]2(C)[C@@H](Cl)[C@@H]1Cl`, the T/C was 104 % of control and 113 % of control under setting [15]; 104 % of control and 108 % of control and 111 % of control under setting [16]; 114 % of control and 117 % of control and 121 % of control under setting [17]; 108 % of control and 119 % of control and 120 % of control under setting [18].
As to `O=C1c2ccccc2C(=O)N1/N=[N+](\[O-])N1CCOCC1`, the T/C under setting [15] is 90 % of control, the T/C under setting [16] is 99 % of control, the T/C under setting [17] was 90 % of control and the T/C under setting [18] is 101 % of control.
In the case of `Cn1c(C(=O)N/N=C\C2OC3OC(C)(C)OC3C3OC(C)(C)OC23)cc2cc(OCc3ccccc3)ccc21` (stereo not drawn), the T/C is 103 % of control under setting [16], 101 % of control under setting [17] and 97 % of control under setting [18].
With `CC(O)C(N)C(=O)NC(Cc1ccc(O)cc1)C(=O)NC(CO)C(=O)NC(CCCCN)C(=O)O` (stereo not drawn) (H-TYSK-OH; configuration not given here), the T/C runs as follows: under setting [4], 99 % of control; under setting [5], 107 % of control; under setting [6], 106 % of control.
Take `NCCC(=O)NCCSSCCNC(=O)CCN`: the T/C runs as follows: (dose: 100.0 mg/kg/injection, schedule: Q04DX003 (ip), vehicle: saline) 112 % of control; (dose: 200.0 mg/kg/injection, schedule: Q04DX003 (ip), vehicle: saline) 111 % of control.
On to `Cc1ccccc1C1=NC2(CCCCC2)N=C1NN`, for which the T/C is, setting by setting: under setting [7], 104 % of control; under setting [8], 98 % of control; under setting [9], 91 % of control.
In the case of `Cc1ccc(NCCC2CCCN3CCCCC23)c2c(=O)c3ccccc3sc12` (stereo not drawn), the T/C reads like this: (dose: 12.5 mg/kg/injection, schedule: Q01DX005 (ip), vehicle: distilled water + Tween-80) 100 % of control; (dose: 25.0 mg/kg/injection, schedule: Q01DX005 (ip), vehicle: distilled water + Tween-80) 91 % of control.
Take `O=C(CC(=O)c1ccc(Cl)cc1)c1ccc(Cl)cc1`: the T/C reads like this: (dose: 50.0 mg/kg/injection, schedule: Q04DX003 (ip), vehicle: saline with Tween-80) 100 % of control; under setting [1], 100 % of control; under setting [2], 98 % of control; under setting [3], 93 % of control.
With `Cc1ccc(NC(=O)NCCCCCCNC(=O)Nc2ccc(C)cc2)cc1`, the T/C is, setting by setting: under setting [10], 96 % of control; under setting [11], 94 % of control; under setting [12], 106 % of control.
Consider `CC1(C)OC(=O)C=C[C@]2(C)[C@H]3CC[C@@]4(C)[C@H](c5ccoc5)C[C@H]5O[C@]54[C@]3(C)C(=O)[C@H](O)[C@@H]12`, for which the T/C by setting is: (dose: 1.25 mg/kg/injection, schedule: Q04DX003 (ip), vehicle: Klucel (hydroxypropylcellulose) (HPC)) 91 % of control; (dose: 2.5 mg/kg/injection, schedule: Q04DX003 (ip), vehicle: Klucel (hydroxypropylcellulose) (HPC)) 96 % of control; (dose: 5.0 mg/kg/injection, schedule: Q04DX003 (ip), vehicle: Klucel (hydroxypropylcellulose) (HPC)) 94 % of control; (dose: 10.0 mg/kg/injection, schedule: Q04DX003 (ip), vehicle: Klucel (hydroxypropylcellulose) (HPC)) 98 % of control.
Regarding `COc1cc([C@@H]2c3cc4c(c(O)c3C[C@H]3COC(=O)[C@@H]32)OCO4)cc(OC)c1OC`, the T/C is, setting by setting: (dose: 0.12 mg/kg/injection, schedule: Q01DX009 (ip), vehicle: saline) 113 % of control; (dose: 0.12 mg/kg/injection, schedule: Q01DX009 (ip), vehicle: suspension in saline) 111 % of control; (dose: 0.25 mg/kg/injection, schedule: Q01DX009 (ip), vehicle: saline) 119 % of control; (dose: 0.25 mg/kg/injection, schedule: Q01DX009 (ip), vehicle: suspension in saline) 119 % of control; (dose: 0.5 mg/kg/injection, schedule: Q01DX009 (ip), vehicle: saline) 124 % of control.
As for `CCCCN(CCCC)CC(O)c1ccc(F)c2ccccc12` (stereo not drawn), the T/C reads like this: (dose: 12.5 mg/kg/injection, schedule: Q01DX005 (ip), vehicle: saline) 96 % of control; (dose: 25.0 mg/kg/injection, schedule: Q01DX005 (ip), vehicle: saline) 105 % of control; (dose: 50.0 mg/kg/injection, schedule: Q01DX005 (ip), vehicle: saline with Tween-80) 113 % of control; under setting [4], 99 % of control; (dose: 100.0 mg/kg/injection, schedule: Q01DX005 (ip), vehicle: saline with Tween-80) 97 % of control.
